The values that follow come from PubChem BioAssay (NCI).

Several values for one entry are separate records, joined by “and”; a condition that tells them apart may be missing. Equal values may be shown once.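 96-well plates; 48 h exposure; 5 concentrations. Endpoints by linear interpolation between flanking doses. Not reached: highest tested concentration assigned. At the GI50, growth is halved. TGI: concentration producing complete growth inhibition.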

Assay in all cases: NCI tumour cell line growth inhibition, 48 h
The test system of assay [1] is SW-620 colon.
Assay [2] concerns SK-OV-3 ovarian.
For assay [3], the system named is CAKI-1 renal.
Assay [4] has as its system DMS 114 small cell lung.
Assay [5] relates to DMS 273 small cell lung.
In assay [6] the test system is MOLT-4 leukemia.
Assay [7] concerns OVCAR-8 ovarian.
For assay [8], the system named is HOP-92 NSCLC.
The test system of assay [9] is NCI-H226 lung.
The test system of assay [10] is MDA-MB-435.

For the compound `O=C(NC1C2CC3CC(C2)CC1C3)c1cc(/C=C/c2ccccc2)[nH]c(=S)n1` (stereo not drawn), the TGI is greater than 100 µM in [1]; greater than 100 µM in assay [2]; greater than 100 µM in [3]; greater than 100 µM in [4]; greater than 100000 nM in assay [5]; greater than 100 µM in assay [6]. In assay [7], this compound returned a TGI greater than 100 µM.

For the compound `C=C1C(=O)O[C@@H]2C1C[C@@H](O)C(=C)CC/C=C(\C)CCC[C@H](C)[C@H]2OC(C)=O` (stereo partly drawn), the GI50 in assay [8] was 1090 nM; in assay [9], 3370 nM; in assay [1], 3810 nM; in [2], 14800 nM; in assay [10], 12900 nM; in [3], 4060 nM. For the same compound, the GI50 in assay [6] was 2540 nM; in [7], 15400 nM. The TGI came out at 3.76 µM in [8]; 12.8 µM in assay [9]; 13.6 µM in [1]; 32.5 µM in [2]; 26.7 µM in assay [10]; 14.7 µM in assay [3]. For the same compound, the TGI was determined as 5.9 µM in assay [6] and 45.4 µM in [7].

As for `CCOC(=O)/C(C#N)=C1/C(O)=C(C(=O)OC)C(C(=O)OC)=C1C(=O)OC`, the TGI in assay [8] is greater than 100 µM; in assay [1] it was greater than 100 µM; in assay [2], greater than 100 µM; in assay [3], greater than 100 µM; in assay [5], greater than 100000 nM; in [6], greater than 100 µM. For the same compound, the TGI in assay [7] was greater than 100 µM.

For the compound `CC1=C([Te]c2ccc(O)cc2)C(=O)c2ccccc2C1=O`, the GI50 in assay [8] was 1090 nM; in [9], 330 nM; in [1], 1470 nM; in assay [2] it was 1660 nM; in assay [10], 2350 nM; in [3], 2210 nM. In addition, the GI50 in assay [6] was 907 nM; in [7], 2400 nM. For the same compound, the TGI in assay [8] was found to be 2.75 µM; in [9], 1.57 µM; in [1], 3.15 µM; in [2], 4.52 µM; in assay [10] it was 5.79 µM; in assay [3] it was 7.41 µM. Besides, the TGI in [6] turned out to be 4.3 µM; in [7], 8.34 µM.

Take `Cc1cc2c(c3oc(C4(C)OC4C4OC4C)cc(=O)c13)C(=O)c1c(O)c(C3CC(C)(N(C)C)C(O)C(C)O3)cc(C3CC(N(C)C)C(O)C(C)O3)c1C2=O` (stereo not drawn): the GI50 in assay [8] was 0.258 nM; in [1], 0.0489 nM and 0.111 nM; in [2], 2.38 nM; in assay [10], 0.285 nM; in assay [3], 0.145 nM; in assay [6] it was 0.0944 nM and 0.106 nM. In [7], the GI50 is 0.731 nM and 0.103 nM. Also, the TGI was 0.000537 µM and 0.000944 µM in [9]; 0.000256 µM and 0.00129 µM in [10]; 0.406 nM and 2.52 nM in [5].

On to `CCOc1ccccc1NC(=O)CCc1n[nH]c(=S)o1`, for which the TGI in [8] was greater than 100 µM; in assay [9] it was greater than 100 µM; in [1], greater than 100 µM; in assay [2], greater than 100 µM; in assay [3] it was greater than 100 µM; in assay [5], greater than 100000 nM. In addition, the TGI in [6] is greater than 100 µM.

`COc1cc(-c2nn(-c3cccc(NC(=O)c4ccc(N5CCOCC5)c(C(F)(F)F)c4)c3)cc2-c2ccncc2)ccc1Cl`: the GI50 in [8] is 128 nM; in [9], 1070 nM; in [1] it was 168 nM; in [2], 345 nM; in assay [10], 25.2 nM; in assay [3], 293 nM. Also, the GI50 in assay [6] is 669 nM; in assay [7], 468 nM. The TGI was 0.952 µM in [8]; 99.2 µM in assay [9]; greater than 56.9 µM in [1]; 5.34 µM in [2]; 0.0827 µM in assay [10]; 3.19 µM in [3]. The TGI in [6] and in assay [7] was greater than 100 µM each time.

Take `COc1ccc2c(c1OC)OCC(CN(C)C)C2=O` (stereo not drawn): the TGI in assay [8] is 11.3 µM; in assay [9], greater than 67.4 µM; in assay [1], 26.4 µM; in [2], greater than 57.3 µM; in assay [10] it was 34.3 µM; in [3], 11.3 µM. Also, the TGI came out at 5.32 µM in assay [6] and 50.2 µM in [7].

As for `C[C@H]1[C@H]2[C@H]3CC[C@@H]4[C@@]5(C)C/C(=C/c6cccnc6)C(=O)C(C)(C)[C@@H]5CC[C@@]4(C)[C@]3(C)CC[C@]23CO[C@]1(C)[C@@H](C(=O)/C=C\c1cccnc1)C3`, the GI50 in assay [8] is 844 nM; in assay [9] it was 970 nM; in assay [1], 1020 nM; in [2], 5900 nM; in assay [10], 1170 nM; in assay [3], 1450 nM. Besides, the GI50 in assay [6] is 524 nM; in assay [7], 1590 nM. The TGI in assay [8] is 3.11 µM; in assay [9] it was 2.1 µM; in assay [1], 2.51 µM; in [2], greater than 50 µM; in [10] it was 2.93 µM; in assay [3] it was greater than 15.4 µM. The TGI in [7] was greater than 50 µM.

Consider `O=C(NCc1ccco1)c1ccc(NC2=C(Cl)C(=O)N(Cc3ccccc3)C2=O)cc1`, for which the GI50 is 17700 nM in [8]; 17200 nM in assay [9]; 51700 nM in assay [1]; 53200 nM in [2]; 16300 nM in assay [10]; 1840 nM in assay [3]. The GI50 in [6] was 14700 nM; in assay [7] it was 42500 nM. Moreover, the TGI was 36 µM in assay [8]; 60.8 µM in assay [9]; greater than 100 µM in assay [1]; greater than 100 µM in assay [2]; 37.6 µM in assay [10]; 3.39 µM in [3]. In addition, the TGI was 38 µM in assay [6] and greater than 100 µM in assay [7].

As to `CCc1cc2c(cc1N1CCC(N3CCOCC3)CC1)C(C)(C)c1[nH]c3cc(C#N)ccc3c1C2=O`, the GI50 in assay [8] was 386 nM and 179 nM and 576 nM; in [9], 1750 nM and 1630 nM and 1610 nM; in assay [1], 924 nM and 1260 nM and 1080 nM; in assay [2], 1640 nM and 1870 nM and 2840 nM; in assay [10] it was 1460 nM and 1340 nM and 2100 nM; in assay [3], 1260 nM and 1280 nM and 1130 nM. Further, the GI50 in assay [6] was 1570 nM and 973 nM and 1380 nM; in assay [7] it was 648 nM and 935 nM and 1300 nM. For the same compound, the TGI in assay [8] is 3.54 µM and 1.23 µM and 4.84 µM; in assay [9], 4.32 µM and 3.97 µM and 5.19 µM; in [1], > 21.8 µM and 22 µM and > 10 µM; in assay [2] it was 3.4 µM and 3.72 µM and 8.64 µM; in [10] it was 5.97 µM and 5.53 µM and > 10 µM; in assay [3], 12.4 µM and 4.57 µM and 3.87 µM. The TGI in [6] is > 100 µM and 14.7 µM and > 10 µM; in assay [7], 2.48 µM and 3.11 µM and 3.57 µM.

Turning to `CCc1ccc2c(c1)N(CCO)C1=C(C(=O)OC1)C2c1cccc(Cl)c1` (stereo not drawn), the GI50 in [8] was 12700 nM; in assay [9], 1350 nM; in [1], 416 nM; in assay [2] it was 663 nM; in assay [10], 195 nM; in assay [3], 3020 nM. In addition, the GI50 in assay [6] was 1780 nM; in [7] it was 1320 nM. Further, the TGI is 27.8 µM in [8]; 10.5 µM in assay [9]; 21.7 µM in [1]; 10.7 µM in [2]; 0.787 µM in assay [10]; 35.1 µM in [3]. In addition, the TGI in [6] was determined as 48.5 µM; in [7], 26.8 µM.

On to `O=c1c2c3c(sc2nc(N/N=C/c2ccc(Br)cc2)n1Cc1ccccc1)CCCC3`, for which the GI50 in assay [8] is 8630 nM; in assay [9], 37400 nM; in assay [1], 46200 nM; in assay [2] it was greater than 100000 nM; in assay [10] it was 44100 nM; in assay [3], 74300 nM. In addition, the GI50 in assay [6] is 3810 nM; in [7], 47000 nM. Also, the TGI in assay [8], in assay [9], in [1], in assay [2], in [10] and in assay [3] was greater than 100 µM throughout. The TGI in assay [6] and in assay [7] was greater than 100 µM each time.

`CCCCCCCCCCCCOC1C(C(CC(=O)N2CCN(c3cccc(C(F)(F)F)c3)CC2)NS(=O)(=O)c2cc(Cl)cc(Cl)c2)OC2OC(C)(C)OC21` (stereo not drawn): the GI50 in [8], in [9], in assay [1], in [2], in [10] and in assay [3] was greater than 100000 nM throughout. In addition, the GI50 in assay [6] and in assay [7] was greater than 100000 nM each time. The TGI in assay [8], in [9], in assay [1], in [2], in assay [10] and in [3] was greater than 100 µM each time. Moreover, the TGI in [6] and in [7] was greater than 100 µM throughout.

Regarding `O=C1OC(c2ccccc2)(c2cc(Br)c(O)c(Br)c2)c2ccccc21` (stereo not drawn), the GI50 in assay [8] was 16600 nM; in [9], 26200 nM; in assay [1] it was 27000 nM; in assay [2], 21400 nM; in assay [10] it was 22600 nM; in assay [3], 29200 nM. The values for the GI50 in assay [6] and in [7] were 30400 nM and 29300 nM, respectively. For the same compound, the TGI is 40.5 µM in assay [8]; 84.4 µM in assay [9]; greater than 100 µM in [1]; 53.7 µM in [2]; 77.1 µM in assay [10]; greater than 100 µM in assay [3]. Moreover, the TGI in [6] and in [7] was greater than 100 µM throughout.
